Key:
[1] = system: hairpin duplex, 5'-biotin-CGA3T3C(CT)2GA3T3CG (DNA, hairpin) CGAAATTTCCTCTGAAATTTCG; experiment: SPR
[2] = system: h-Tel quadruplex DNA, 5'-biotin-d[AG3(T2AG3)3] (DNA, G4) AGGGTTAGGGTTAGGGTTAGGG; experiment: SPR
[3] = target: human recombinant β2 adrenergic receptor (Homo sapiens, UniProt P07550); experiment: β2 adrenergic receptor inhibition assay; type: binding; conditions: read-out: β2 adrenergic % inh @1 μM
Description: (§1) hEGR study and the M2 and the β2 receptor inhibition assay were performed as previously reported.
(§2) The new G-quadruplex ligands were designed in an attempt to obtain molecules with improved toxicological and on-target profiles, but maintaining the same favorable chemical and pharmacological features of the lead compound 1. With the aim of selecting the best variants, a step by step comparative analysis of their off- and on-target properties was performed. Initially the new molecules were tested for their ability to interact with and inhibit the human recombinant β2 adrenergic and M2 muscarinic receptors, and to reduce the hERG tail current in a patch clamp assay. […] Therefore, we might expect that the new ligands would impair cardiac functionality to a lesser extent than the lead molecule does.

BJ-EHLT fibroblasts [4] = experiment: γ-H2AX/PCNA co-immunostaining (replication-dependent DNA damage); type: cell-based, human; conditions: 24 hrs
Description: (§3) Cells were fixed in 2% formaldehyde and permeabilized in 0.25% Triton X100 in PBS for 5 min at room temperature. For immunolabeling, cells were incubated with primary antibody, then washed in PBS and incubated with the secondary antibodies. The following primary antibodies were used: pAb and mAb anti-TRF1(Abcam Ltd.; Cambridge UK); mAb (Upstate, Lake Placid, NY) and pAb anti-γH2AX (Abcam); mAb anti-PCNA (Sigma Chemicals, Milano, Italy). The following secondary antibody were used: TRITC conjugated Goat anti Rabbit, FITC conjugated Goat anti Mouse (Jackson ImmunoResearch Europe Ltd., Suffolk, UK). Fluorescence signals were recorded by using a Leica DMIRE2 microscope equipped with a Leica DFC 350FX camera and elaborated by a Leica FW4000 deconvolution software (Leica, Solms, Germany). This system permits to focus single planes inside the cell generating 3D highresolution images. For quantitative analysis of γH2AX positivity, 200 cells on triplicate slices were scored. For TIFs analysis, in each nucleus a single plane was analyzed and at least 50 nuclei per sample were scored.
Figure 2 DNA damage activation at telomeres. BJ-EHLT fibroblasts were treated for 24 hrs with compound 1 and the indicated ligands at the doses 0.1 (light-grey bars) and 0.5 μM (dark-grey bars). […] Cells with four or more γ-H2AX/TRF1 foci were scored as TIF positive. […]

[5] = system: human colon cancer cell line HT-29; experiment: MTT proliferation assay, HT-29; type: cell-based; conditions: 96 hours
Description: (§4) Normal WI-38 diploid human lung fibroblasts and the human colorectal adenocarcinoma HT29 cells were obtained from American Type Culture Collection (Manassas, VA, USA). BJ fibroblasts expressing hTERT and SV40 early region (BJ-EHLT) were obtained as previously reported. Cells were grown in Dulbecco Modified Eagle Medium (D-MEM, Invitrogen Carlsbad, CA, USA) supplemented with 10% fetal calf serum, 2 mM L-glutamin and antibiotics.
(§5) MTT (3-(4,5-Dimethylthiazol-2-yl)-2,5-diphenyltetrazolium Bromide) assay was performed in treated and untreated cells for 96 hours. Cells were incubated with MTT solution (Sigma-Aldrich), and the purple formazan crystals were dissolved in isopropanol. Optical densities (OD) at 540 nm was determined on microplate reader.
(§6) Firstly, we investigated if they were able to efficiently promote growth inhibition of tumor cells without affecting the survival of normal cells in vitro. In Table 1 we report for each compound the concentration causing 50% of growth inhibition (GI50) calculated by performing a proliferation assay in the human colon cancer cell line HT-29 or in the human ‘normal’ lung WI-38 cells. […] On the basis of results described so far, we decided to exclude from the further analysis ligand 10 for its high value of hERG inhibition (95%) (Table 1).

[6] = target: T1, human recombinant M2 muscarinic receptor (Homo sapiens, UniProt P08172); experiment: M2 muscarinic receptor inhibition assay; type: binding; conditions: read-out: Muscarinic (M2) % inh @1 μM
T1 sequence (P08172 1-466): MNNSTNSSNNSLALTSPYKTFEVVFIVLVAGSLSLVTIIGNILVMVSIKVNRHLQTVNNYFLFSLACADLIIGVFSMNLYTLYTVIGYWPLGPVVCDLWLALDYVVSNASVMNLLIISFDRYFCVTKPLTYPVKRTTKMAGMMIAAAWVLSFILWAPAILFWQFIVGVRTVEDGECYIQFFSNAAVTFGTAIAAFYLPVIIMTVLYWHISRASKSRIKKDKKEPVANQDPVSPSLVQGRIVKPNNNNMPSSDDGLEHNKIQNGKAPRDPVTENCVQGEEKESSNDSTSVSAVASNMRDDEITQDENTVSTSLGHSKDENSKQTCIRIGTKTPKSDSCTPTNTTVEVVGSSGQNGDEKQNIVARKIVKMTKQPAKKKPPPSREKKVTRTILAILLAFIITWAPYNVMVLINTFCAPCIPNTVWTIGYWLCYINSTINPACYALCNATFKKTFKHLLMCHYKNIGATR
Description: as §1, §2

[7] = system: h-Tel quadruplex DNA sequence 5'-d[AGGG(TTAGGG)3]-3'; experiment: SPR binding to quadruplex DNA; parameters: species or system human; conditions: for Quadruplex/duplex ratio: quadruplex vs duplex affinity
Description: (§7) Oligonucleotides 5’-biotin-d [AG3 (T2AG3)3] quadruplex and 5’-biotin-CGA3T3C(CT)2GA3T3CG were purchased from Midland Certified Reagent Company (Midland, TX). Purification of DNA, preparation of solutions, collection of data, and analysis of results were conducted according to methods adopted in an earlier study.
(§8) This technique takes advantage of the refractive index change elicits by the binding of the drug with the h-Tel quadruplex DNA sequence 5’-d[AGGG(TTAGGG)3]-3’ or an alternating hairpin duplex sequence immobilized on a sensor chip surface.

[8] = system: alternating hairpin duplex sequence 5'-biotin-CGA3T3C(CT)2GA3T3CG; experiment: SPR binding to duplex DNA
Description: as §7, §8

[9] = system: human 'normal' lung WI-38 cells; experiment: MTT proliferation assay, WI-38; type: cell-based; conditions: for Ratio PMX WI38/HT29: GI50 WI-38 / GI50 HT-29; for GI50: Homo sapiens, WI-38, MTT, 96 hours
Description: as §4, §5, §6

BJ-EHLT fibroblasts [10] = experiment: γ-H2AX/TRF1 colocalization (TIFs, telomere uncapping); type: cell-based, human; conditions: for telomere dysfunction (TIF formation), in words / mean TIFs per nucleus: 24 hrs; for telomere dysfunction (TIF formation), in words: 0.1 and 0.5 μM
Description: as §3
Unfortunately, we were not able to test compounds 4, 5 and the 0,5 μM dose of 3 as they were fluorescent in both red and green channels. […] To ascertain whether γ-H2AX was phosphorylated in response to dysfunctional telomeres, double immunofluorescence experiments were processed by confocal microscopy. We observed that some of the γ-H2AX foci induced by G4-ligands colocalized with TRF1, a good marker for interphase telomeres, forming the so-called telomere dysfunction-induced foci (TIFs) (Figure 2B).
Figure 2 DNA damage activation at telomeres. BJ-EHLT fibroblasts were treated for 24 hrs with compound 1 and the indicated ligands at the doses 0.1 (light-grey bars) and 0.5 μM (dark-grey bars). Cells were processed for immunofluorescence (IF) using antibodies against γ-H2AX and TRF1 to mark DNA damage and telomeres respectively. Percentages of γ-H2AX- (A) and TIF-positive (B) treated and untreated cells are reported in the histograms. (C) Mean number of TIFs in the indicated samples. Cells with four or more γ-H2AX/TRF1 foci were scored as TIF positive. Error bars indicate the standard deviation. (D) Representative images of IF of untreated and 1, 3, 6 and 8-treated BJ-EHLT cells. Enlarged views of TIFs are reported on the right of the merged images. The images were acquired with a Leica Deconvolution microscope (magnification 100x). (E) Cells treated as in (A) were processed for IF of γ-H2AX and PCNA to mark replicating cells. Percentage of γ-H2AX+/PCNA- or γ-H2AX+/PCNA + nuclei in the indicated samples are reported in the histograms.

hERG = hERG (Homo sapiens, UniProt Q12809); experiment: hERG tail current inhibition in a patch clamp assay; type: cell-based; conditions: read-out: hERG % inh @10 μM
Description: as §1, §2

Chain of human recombinant β2 adrenergic receptor (P07550 whole entry): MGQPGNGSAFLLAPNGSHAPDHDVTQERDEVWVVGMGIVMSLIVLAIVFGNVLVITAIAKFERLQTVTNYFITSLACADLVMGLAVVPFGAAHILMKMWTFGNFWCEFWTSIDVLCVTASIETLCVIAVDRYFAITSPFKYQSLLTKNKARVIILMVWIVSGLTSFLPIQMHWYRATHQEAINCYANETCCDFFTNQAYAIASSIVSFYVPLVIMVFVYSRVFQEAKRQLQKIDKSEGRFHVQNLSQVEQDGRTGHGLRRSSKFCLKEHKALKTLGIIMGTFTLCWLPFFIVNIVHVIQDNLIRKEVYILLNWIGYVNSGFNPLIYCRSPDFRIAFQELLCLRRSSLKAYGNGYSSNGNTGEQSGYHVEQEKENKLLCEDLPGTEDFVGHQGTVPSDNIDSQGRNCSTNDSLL
Chain of hERG (Q12809 whole entry): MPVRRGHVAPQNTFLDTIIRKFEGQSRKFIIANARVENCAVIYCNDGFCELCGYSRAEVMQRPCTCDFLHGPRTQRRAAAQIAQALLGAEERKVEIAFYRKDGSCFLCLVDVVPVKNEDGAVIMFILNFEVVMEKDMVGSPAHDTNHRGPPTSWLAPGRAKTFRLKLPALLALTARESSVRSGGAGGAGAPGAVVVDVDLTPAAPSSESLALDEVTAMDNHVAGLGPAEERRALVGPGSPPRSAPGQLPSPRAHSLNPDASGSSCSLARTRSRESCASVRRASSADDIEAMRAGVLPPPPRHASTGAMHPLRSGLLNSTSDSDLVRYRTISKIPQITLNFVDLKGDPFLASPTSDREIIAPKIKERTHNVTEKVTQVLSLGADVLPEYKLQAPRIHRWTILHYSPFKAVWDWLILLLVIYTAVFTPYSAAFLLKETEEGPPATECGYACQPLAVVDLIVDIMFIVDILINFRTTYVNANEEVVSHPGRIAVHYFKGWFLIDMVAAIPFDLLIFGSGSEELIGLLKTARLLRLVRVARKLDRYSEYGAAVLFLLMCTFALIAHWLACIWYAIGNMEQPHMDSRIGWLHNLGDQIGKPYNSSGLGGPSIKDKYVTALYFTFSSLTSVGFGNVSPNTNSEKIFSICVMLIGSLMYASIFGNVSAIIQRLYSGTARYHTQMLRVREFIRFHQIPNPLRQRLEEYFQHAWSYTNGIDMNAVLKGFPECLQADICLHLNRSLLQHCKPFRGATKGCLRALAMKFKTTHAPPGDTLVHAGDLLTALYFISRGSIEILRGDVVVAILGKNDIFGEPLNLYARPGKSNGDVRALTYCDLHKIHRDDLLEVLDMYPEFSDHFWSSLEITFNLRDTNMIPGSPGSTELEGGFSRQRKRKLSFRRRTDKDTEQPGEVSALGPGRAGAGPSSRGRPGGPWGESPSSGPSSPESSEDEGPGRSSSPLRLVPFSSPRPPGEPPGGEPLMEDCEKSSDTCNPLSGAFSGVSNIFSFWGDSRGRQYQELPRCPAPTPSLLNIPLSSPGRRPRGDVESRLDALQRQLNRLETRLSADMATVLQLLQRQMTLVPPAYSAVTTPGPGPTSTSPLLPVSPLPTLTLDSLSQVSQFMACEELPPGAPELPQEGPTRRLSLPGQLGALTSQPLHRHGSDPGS

| Structure (SMILES) | K [1] [M⁻¹] | K [2] [M⁻¹] | inhibition at 1 µM [3] [%] | GI50 [5] [nM] | inhibition at 1 µM [6] [%] | Quadruplex DNA affinity K [7] | Duplex DNA affinity K [8] | Quadruplex/duplex ratio [7] | γ-H2AX foci formation relative to PCNA status (BJ-EHLT fibroblasts [4]) | Ratio PMX WI38/HT29 [9] | GI50 [9] [nM] | telomere dysfunction (TIF formation), in words (BJ-EHLT fibroblasts [10]) | inhibition at 10 µM (hERG) [%] | mean TIFs per nucleus (BJ-EHLT fibroblasts [10]) | percentage of cells with more than four γ-H2AX/TRF1 colocalizations (TIF-positive) (BJ-EHLT fibroblasts [10]; 24 hrs, 0,1 μM) | percentage of cells with more than four γ-H2AX/TRF1 colocalizations (TIF-positive) (BJ-EHLT fibroblasts [10]; 24 hrs, 0,5 μM) [%] |
| --- | --- | --- | --- | --- | --- | --- | --- | --- | --- | --- | --- | --- | --- | --- | --- | --- |
| CN1c2ccccc2-c2c3c1cccc3c1ccc(NC(=O)CCS(C)=O)cc1[n+]2C (stereo not drawn) | < 100000 | 2.3e+07 | – | – | – | – | – | – | – | – | – | – | – | – | – | – |
| Cc1cc2c3c([n+](C)c4ccc(F)cc4c3c1)-c1cc(F)ccc1N2C [Compound 1, 3,11-difluoro-6,8,13-trimethyl-8H-quino [4,3,2-kl] acridinium methosulfate, reference compound] | 600000 | 9e+06 | 100 | 620 | 98 | 9e+06 M⁻¹ | 600000 M⁻¹ | – | almost exclusively restricted to PCNA-positive | 11,6 | 7200 | – | – | – | – | – |
| CN1c2ccccc2-c2c3c1cccc3c1ccc(NC(=O)C3CC3)cc1[n+]2C [Compound 3] | 100000 | 2.2e+07 | 13 | 700 | 98 | 22,0 x10^6 M^−1 | 0,1 x10^6 M^−1 | 244,4 | – | 18,5 | 13000 | – | 74 | about seven | about 18% | – |
| CN1c2ccccc2-c2c3c1cccc3c1ccc(CN)cc1[n+]2C [Compound 4] | 1.1e+06 | 7.4e+06 | 1 | 1630 | 65 | 7.4e+06 M⁻¹ | 1,1 x10^6 M^−1 | 6,7 | – | 10,6 | 17300 | – | 15 | – | – | – |
| CN1c2ccccc2-c2c3c1cccc3c1ccc(NC(=O)CC[S+](C)[O-])cc1[n+]2C (stereo not drawn) [Compound 5] | – | – | 10 | 1830 | 93 | 2.3e+07 M⁻¹ | <0,1 x10^6 M^−1 | >230 | – | – | > 30000 | – | 16 | – | – | – |
| CN(C)CC#Cc1ccc2c3cccc4c3c([n+](C)c2c1)-c1ccccc1N4C [Compound 7] | 900000 | 2.93e+07 | 0 | 280 | 92 | 29,3 x10^6 M^−1 | 0,9 x10^6 M^−1 | 32,6 | – | 33,4 | 9360 | did not cause significant telomere dysfunction | 37 | – | – | – |

Continued, in another order:

| K [1] [M⁻¹] | K [2] [M⁻¹] | inhibition at 1 µM [3] [%] | GI50 [5] [nM] | inhibition at 1 µM [6] [%] | Quadruplex DNA affinity K [7] | Duplex DNA affinity K [8] | Quadruplex/duplex ratio [7] | Structure (SMILES) | γ-H2AX foci formation relative to PCNA status (BJ-EHLT fibroblasts [4]) | Ratio PMX WI38/HT29 [9] | GI50 [9] [nM] | telomere dysfunction (TIF formation), in words (BJ-EHLT fibroblasts [10]) | inhibition at 10 µM (hERG) [%] | mean TIFs per nucleus (BJ-EHLT fibroblasts [10]) | percentage of cells with more than four γ-H2AX/TRF1 colocalizations (TIF-positive) (BJ-EHLT fibroblasts [10]; 24 hrs, 0,1 μM) | percentage of cells with more than four γ-H2AX/TRF1 colocalizations (TIF-positive) (BJ-EHLT fibroblasts [10]; 24 hrs, 0,5 μM) [%] |
| --- | --- | --- | --- | --- | --- | --- | --- | --- | --- | --- | --- | --- | --- | --- | --- | --- |
| 200000 | 4.2e+06 | 11 | 100 | 98 | 4.2e+06 M⁻¹ | 0,2 x10^6 M^−1 | 21 | COC(=O)c1ccc2c(c1)c1cccc3c1c([n+]2C)-c1ccccc1N3C [Compound 2] | – | 31,1 | 3110 | did not cause significant telomere dysfunction | 41 | – | – | – |
| 700000 | 1.47e+07 | 8 | 260 | 77 | 14,7 x10^6 M^−1 | 0,7 x10^6 M^−1 | 21 | CN1c2ccccc2-c2c3c1cccc3c1ccc(NC(=O)CO)cc1[n+]2C [Compound 6] | – | 85,7 | 22300 | – | 35 | about seven | – | ~40 |
| < 100000 | 1.5e+06 | – | 210 | 24 | 1,5 x10^6 M^−1 | <0,1 x10^6 M^−1 | >15 | C[n+]1c2c3c(cccc3c3ccccc31)Oc1ccccc1-2 [Compound 9] | – | 24,3 | 5110 | did not cause significant telomere dysfunction | 86 | – | – | – |
| < 100000 | 1e+06 | – | 130 | 49 | 1,0 x10^6 M^−1 | <0,1 x10^6 M^−1 | >10 | C[n+]1c2c3c(cccc3c3ccccc31)Sc1ccccc1-2 [Compound 10] | – | 47,5 | 6170 | – | 95 | – | – | – |
